Test results published in patent US6605639B1, “Ligands of nuclear receptor” (Nuclear Receptor Research, Ltd., priority 1998, dated 2003).
Several values for one entry are separate records, joined by “and”; a condition that tells them apart may be missing. Equal entries are not always repeated.

How the values were obtained:
human RXRα = molecular target: T1, human RXRα (Homo sapiens, UniProt P19793); test: RXR reporter gene (luciferase) transfer assay in COS-1 cells; assay type: cell-based; details: for degree of increase in the luciferase activity, RXR vector: control lot = 1
T1 construct: expressed in transfected cells; host or cells: COS-1 cells
T1 sequence (P19793 1-462): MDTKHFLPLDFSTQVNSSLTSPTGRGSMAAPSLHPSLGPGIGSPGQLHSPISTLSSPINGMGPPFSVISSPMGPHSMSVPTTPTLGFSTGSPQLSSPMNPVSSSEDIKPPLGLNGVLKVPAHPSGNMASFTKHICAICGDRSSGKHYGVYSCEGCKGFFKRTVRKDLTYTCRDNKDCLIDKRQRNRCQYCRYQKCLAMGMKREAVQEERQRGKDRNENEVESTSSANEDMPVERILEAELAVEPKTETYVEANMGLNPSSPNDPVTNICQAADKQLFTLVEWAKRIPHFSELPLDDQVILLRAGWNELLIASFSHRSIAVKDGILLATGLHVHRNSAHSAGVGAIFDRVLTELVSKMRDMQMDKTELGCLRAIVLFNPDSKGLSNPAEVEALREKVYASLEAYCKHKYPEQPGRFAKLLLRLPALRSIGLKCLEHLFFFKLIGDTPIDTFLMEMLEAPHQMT
Protocol: A plasmid containing a reporter gene regulated in expression by RXR response element and an RXRα expression plasmid were transferred into COS-1 cells. Then these cells were treated with the compounds of the present invention such as ascochlorin.
Plasmids were transferred into COS-1 cells. Gene transfer was carried out in a conventional manner with the use of Lipofect AMINE reagent (Life Technologies). 1×10^5 cells were dispersed in 2 ml of Dulbecco's modified Eagle medium (DMEM) containing 10% of fetal calf serum and poured into a 35 mm Petri dish. After culturing in a CO2 incubator for 17 hours, the medium was removed and the cells adhering to the Petri dish were washed with phosphate-buffered saline (PBS). Then gene transfer was carried out by using Lipofect AMINE reagent. Namely, 500 ml of a minimum serum medium OptiMEM (Life Technologies) containing […] of a plasmid containing a luciferase gene under the regulation in expression by RXR response element (PRXRL: RXRE-SV40 luciferase; a reporter gene plasmid wherein RXRE has been ligated to SV40 promoter and luciferase cDNA, under the regulation in expression thereby, has been located downstream thereof); […] of an RXRα expression plasmid (pRXRα; a plasmid wherein human RXRα CDNA has been ligated to the downstream of a cytomegalovirus promoter to express human RXRα in mammalian cells); and 2 mg of a β-galactosidase gene plasmid to assess the gene transfer ratio (pCH110; Pharmacia) were pre-mixed with 500 ml of OptiMEM containing 50 ml of Lipofec AMINE, and the resultant mixture was maintained at room temperature for 15 minutes. 100 ml of this liquid mixture was mixed with 400 ml of OptiMEM, and the medium mixture was divided to the Petri dish. After maintaining in a CO2 incubator at 37° C. for 3 hours, the gene transfer medium was sucked off from the Petri dish and DMEM medium containing a test substance and 10% of serum (activated carbon-treated) was added thereto followed by culturing at 37° C. for 20 hours. […] Further, dimethyl sulfoxide (final concentration: 0.1%) was added as the solvent for the test substance.
After sucking off the medium from the Petri dish, […] of a cultured cell lysing solution (25 mM Tris phosphate buffer (pH 7.8), 2 mM 1,2-diaminocyclohexane-N, N,N′,N′-tetraacetate, 10% glycerol, 1% Triton X-100) was added and the cells were peeled off with a rubber policeman and collected. After completely disrupting the cells by freezing and melting, the cells were centrifuged at 4° C. (15,000 rpm, 2 min) and the supernatant thus obtained was employed as a sample for measurement. To 20 ml of the supernatant, 100 ml of a luciferase substrate solution (2.14 mg of Co-A, 100 ml of 470 mM D-Luciferin, 200 ml of 530 mM ATP, 2 ml of DTT-Tricine buffer (pH 7.8)) was added and the fluorescence intensity was measured with a luminometer (ATTO Luminosensor AB-2000). To measure the β-galactosidase for determining the gene transfer efficiency, using a Luminescent β-galactosidase detection kit II (Clontech), fluorescence intensity was measured by a luminometer.

white rabbits = test: Inhibition of arteriosclerosis in white rabbits fed high fat feed; details: 14 weeks
Protocol: Thus, a high fat feed was prepared by adding 10% of hardened coconut oil, 2% of cholesterol, 0.5% of bovine bile powder and 0.04% or 0.01% of ascochlorin to a powdery marketed standard white rabbit feed and molded the mixture into pellets. Separately, another high fat feed for the control group was prepared without using ascochlorin.
Twenty-four white rabbits weighing about 2 kg were divided into 4 groups at random. One of these groups was regarded as the control group, while the remaining 3 groups were respectively regarded as the clofibrate group, the ascochlorin 0.01% group and the ascochlorin 0.04% group at random. Then the experiment was carried out for 14 weeks.

male Wistar rats = test: Oral administration of Compound-5 to rats: toxicity and Compound-1 in the blood; details: rat, in vivo
Protocol: Male Wistar rats (n=4) weighing about 200 g were employed and the concentration of Compound-1 contained in the serum was expressed in mean±SE (FIG. 9).
In FIG. 9, open circles show a case wherein Compound-5 was solubilized with HCO-60 and orally administered in a dose of 2 mg/kg.
Solid circles show a case wherein Compound-5 was suspended in an acacia solution and orally administered in a dose of 20 mg/kg. Per part of the serum collected with the passage of time, ethanol containing 1% of acetic acid was added and the mixture was allowed to stand in the dark at room temperature for 7 days. Then Compound-1 was determined by high performance liquid chromatography.
Open squares show a case wherein Compound-5 was suspended in an acacia solution and orally administered. Then the blood was collected at definite points and Compound-1 was determined by high performance liquid chromatography immediately thereafter. […] Separately, Compound-5 suspended in an acacia solution was orally administered to rats having been cannulated into the portal vein. Then the portal blood was collected with the passage of time and Compound-1 was determined.

male ICR and ddY mice = test: Serum total cholesterol lowering effect in mice; assay type: in vivo, mouse; details: 8 days; for Serum total cholesterol, % change: vs control; for Serum total cholesterol: Mean±SE
Excerpt: Effect of serum cholesterol lowering agents varies among animals. Namely, some agents which are effective on a certain animal exert […] on others. For example, compactin, which is an HMG CoA reductase inhibitor, cannot lower the serum total cholesterol level when administered to rodents such as rat or mouse. This is because even though HMG CoA reductase is inhibited in the rodent liver, the enzyme is biosynthesized in an amount in excess of that for compensating the inhibition so that the inhibitory effect is negated. Accordingly, it is favorable to calibrate the effect of lowering serum total cholesterol level in as many animals as possible. Concerning the effect of the compounds of the present invention on the serum total cholesterol level, an assay was made with the use of mice. After adding these compounds to a standard powdery feed for rat and mouse, the resultant mixtures were molded into pellets and given for 8 days to male ICR and ddY mice aged 5 weeks. In the afternoon of the day 8, the blood of each animal was collected from the heart and the total cholesterol in the serum was determined. The doses were determined as the maximum dose, in which body weight gain was not suppressed after orally administering for 1 week, and as the ¼ dose thereof.
Each value is represented in Mean±SE (n=10). a) In the case of Compound-1, the control group consisted of 23 animals while the 0.04% and 0.01% groups each consisted of 12 animals.

bovine serum = test: Reaction with serum (Schiff base formation): free compound and recovery; details: After 24 hours
Protocol: To recover such a compound in a free state from plasma, it is required to add a large amount of a water-miscible organic solvent (methanol, ethanol, acetone, acetonitrile, etc.) to the plasma, acidify the mixture (pH 3.0 or below) and then allow it to stand at room temperature for about 1 week. […] Ascochlorin, Compound-6 or Compound-14 is dissolved in a small amount of an organic solvent and added to serum.
At definite points, the serum was sampled and divided into 2 portions. Ten times as much acetonitrile was added to one of these portions and the mixture was centrifuged. Then the free compound in the serum was determined. To the other portion, 10 times as much acetonitrile containing 1% of acetic acid was added. After allowing to stand at room temperature for 1 week, the mixture was centrifuged and the free compound was determined (FIG. 10).

| Compound | fold increase in luciferase reporter activity (control = 1) (human RXRα; 10^−6 M) | degree of increase in the luciferase activity, RXR vector (human RXRα; 10^−6 M) | lesions of obstruction in the coronary artery (white rabbits; 0.01% and 0.04% in high fat feed) | survival until the completion of the experiment (white rabbits; 0.01% and 0.04% in high fat feed, 6 animals per group) | increase in the serum total cholesterol level (white rabbits; high fat feed) | toxicity when present in a free state in the blood (male Wistar rats) | Serum total cholesterol, % change (male ICR and ddY mice; 0.01% in feed) | Serum total cholesterol (male ICR and ddY mice; 0.01% in feed) | Serum total cholesterol, % change (male ICR and ddY mice; 0.04% in feed) [%] | Serum total cholesterol (male ICR and ddY mice; 0.04% in feed) | free compound in serum (bovine serum) | fold increase in luciferase reporter activity (control = 1) (human RXRα; 5 × 10^−6 M) | degree of increase in the luciferase activity, RXR vector (human RXRα; 5 × 10^−6 M) | fold increase in luciferase reporter activity (control = 1) (human RXRα; 10^−5 M) | degree of increase in the luciferase activity, RXR vector (human RXRα; 10^−5 M) | fold increase in luciferase reporter activity (control = 1) (human RXRα; 4 × 10^−7 M) | degree of increase in the luciferase activity, RXR vector (human RXRα; 4 × 10^−7 M) |
| --- | --- | --- | --- | --- | --- | --- | --- | --- | --- | --- | --- | --- | --- | --- | --- | --- | --- |
| 3-[5-[l(R),2(S),6(S)-trimethyl-3-oxocylohexyl]-3-methyl-2,4-pentadienyl]-2,4-dihydroxy-5-chloro-6-methylbenzaldehyde [Compound-1] | 2.03 | 61 | significantly alleviated | all individuals survived | would not suppress increase | strong toxicity | −11% | 138 ± 5.1 mg/dL | −15 | 131 ± 6.7 mg/dL | – | – | – | – | – | – | – |
| COc1c(Cl)c(C)c(C=O)c(O)c1C/C=C(C)/C=C/[C@@]1(C)[C@H](C)CCC(=O)[C@@H]1C [Compound-6, 4-O-methylASC] | – | – | – | – | – | – | −16% and −13% | 93 ± 4.4 mg/dL and 103 ± 1.2 mg/dL | – | 92 ± 3.3 mg/dL and 75 ± 4.4 mg/dL | scarcely detected | 1.57 | 55 | – | – | – | – |
| CC(/C=C/[C@@]1(C)[C@H](C)CCC(=O)[C@@H]1C)=C\Cc1c(O)c(C=O)c(C)c(Cl)c1OCC(=O)O [Compound-14, 4-O-carboxymethylASC] | – | – | – | – | – | – | −7% and −13% | 109 ± 2.8 mg/dL and 174 ± 4.9 mg/dL | – | 144 ± 7.2 mg/dL and 100 ± 4.4 mg/dL | scarcely detected | – | – | 1.23 | 47 | – | – |
| CC(/C=C/C1(C)C(C)C=CC(=O)C1C)=C\Cc1c(O)c(Cl)c(C)c(C=O)c1O (centres unmarked) [Compound-26] | – | – | – | – | – | strong toxicity | −10% | 132 ± 6.1 mg/dL | −24 | 110 ± 5.4 mg/dL | – | – | – | – | – | 1.91 | 63 |
